Publication PMC3639963, “A New Class of Small Molecule Inhibitor of BMP Signaling” (PLoS ONE, 2013)

Columns and labels:
Experiment in all cases: Nanosyn kinase profiling
Assay type in all cases: biochemical
Settings in all cases: read-out: Percentage inhibition; for inhibition at 0.1 µM: 0.1 µM inhibitor; for inhibition at 1 µM: 1 µM inhibitor
YES = biological target: T1, YES (Homo sapiens, UniProt P07947)
T1 construct: purchased Nanosyn (enzymatic panel); SGC in-house recombinant human kinases (DSF panel); Invitrogen (ALK1-6)
T1 sequence (P07947 whole entry): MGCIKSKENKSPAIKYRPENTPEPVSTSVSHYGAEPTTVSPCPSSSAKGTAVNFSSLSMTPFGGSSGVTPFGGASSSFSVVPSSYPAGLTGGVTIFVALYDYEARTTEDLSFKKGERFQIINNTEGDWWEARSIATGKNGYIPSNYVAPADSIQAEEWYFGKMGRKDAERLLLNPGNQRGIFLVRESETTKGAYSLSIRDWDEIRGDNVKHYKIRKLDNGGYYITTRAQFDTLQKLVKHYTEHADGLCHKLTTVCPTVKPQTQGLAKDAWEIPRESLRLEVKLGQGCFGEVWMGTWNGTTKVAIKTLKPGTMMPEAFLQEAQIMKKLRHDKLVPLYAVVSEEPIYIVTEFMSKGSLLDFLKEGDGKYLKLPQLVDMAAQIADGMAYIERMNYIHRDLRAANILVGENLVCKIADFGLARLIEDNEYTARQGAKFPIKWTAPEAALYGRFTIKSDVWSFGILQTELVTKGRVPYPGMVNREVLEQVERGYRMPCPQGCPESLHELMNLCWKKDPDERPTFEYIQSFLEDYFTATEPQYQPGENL
Method in brief: (§1)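 Percent inhibition of each kinase was measured with the inhibitor at 0.1 µM and at 1 µM, as part of a 200-kinase human selectivity panel.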

PAK5 = biological target: T2, PAK5 (Homo sapiens, UniProt Q9P286)
T2 construct: purchased Nanosyn (enzymatic panel); SGC in-house recombinant human kinases (DSF panel); Invitrogen (ALK1-6)
T2 sequence (Q9P286 whole entry): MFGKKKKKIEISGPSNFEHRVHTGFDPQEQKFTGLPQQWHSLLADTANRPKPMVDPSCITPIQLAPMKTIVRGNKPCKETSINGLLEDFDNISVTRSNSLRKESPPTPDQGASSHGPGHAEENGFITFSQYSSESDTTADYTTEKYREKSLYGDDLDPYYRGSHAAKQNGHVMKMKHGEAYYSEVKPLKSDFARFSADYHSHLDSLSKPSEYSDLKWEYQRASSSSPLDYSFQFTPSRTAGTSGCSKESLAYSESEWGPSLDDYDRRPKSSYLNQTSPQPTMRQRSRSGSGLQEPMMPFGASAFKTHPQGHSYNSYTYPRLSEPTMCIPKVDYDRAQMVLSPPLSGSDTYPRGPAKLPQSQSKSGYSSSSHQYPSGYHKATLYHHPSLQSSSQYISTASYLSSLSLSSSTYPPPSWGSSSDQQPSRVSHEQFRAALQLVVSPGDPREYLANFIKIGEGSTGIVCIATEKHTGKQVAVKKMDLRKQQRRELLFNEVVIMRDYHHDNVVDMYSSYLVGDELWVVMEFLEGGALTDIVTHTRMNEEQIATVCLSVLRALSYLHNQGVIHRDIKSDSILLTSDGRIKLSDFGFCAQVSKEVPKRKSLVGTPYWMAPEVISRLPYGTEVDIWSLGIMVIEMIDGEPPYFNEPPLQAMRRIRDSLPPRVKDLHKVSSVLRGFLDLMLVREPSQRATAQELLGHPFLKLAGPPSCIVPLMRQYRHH
Method in brief: as §1

FGFR3 = biological target: T3, FGFR3 (Homo sapiens, UniProt P22607)
T3 construct: purchased Nanosyn (enzymatic panel); SGC in-house recombinant human kinases (DSF panel); Invitrogen (ALK1-6)
T3 sequence (P22607 23-806): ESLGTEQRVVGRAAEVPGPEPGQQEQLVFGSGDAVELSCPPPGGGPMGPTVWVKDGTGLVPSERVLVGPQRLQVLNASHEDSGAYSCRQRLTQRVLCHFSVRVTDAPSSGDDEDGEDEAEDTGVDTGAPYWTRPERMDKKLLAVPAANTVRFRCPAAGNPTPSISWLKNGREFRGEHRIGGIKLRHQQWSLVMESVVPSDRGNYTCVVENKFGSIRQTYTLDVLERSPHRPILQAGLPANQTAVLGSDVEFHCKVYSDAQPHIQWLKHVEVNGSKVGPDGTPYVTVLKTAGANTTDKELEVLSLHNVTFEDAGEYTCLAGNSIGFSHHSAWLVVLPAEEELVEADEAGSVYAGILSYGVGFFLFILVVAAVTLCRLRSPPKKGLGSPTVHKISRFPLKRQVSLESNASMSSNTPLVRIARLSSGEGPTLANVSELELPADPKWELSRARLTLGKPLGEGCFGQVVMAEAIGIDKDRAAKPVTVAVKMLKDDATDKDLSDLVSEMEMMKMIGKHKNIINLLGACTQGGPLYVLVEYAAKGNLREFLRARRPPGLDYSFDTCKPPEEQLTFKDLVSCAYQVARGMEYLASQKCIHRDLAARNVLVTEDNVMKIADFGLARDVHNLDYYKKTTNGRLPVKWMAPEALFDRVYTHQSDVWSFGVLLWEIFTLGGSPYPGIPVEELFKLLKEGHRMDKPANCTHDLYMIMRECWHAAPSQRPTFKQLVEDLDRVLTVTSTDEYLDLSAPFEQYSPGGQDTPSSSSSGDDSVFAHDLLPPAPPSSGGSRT
Method in brief: as §1

MARK4 = biological target: T4, MARK4 (Homo sapiens, UniProt Q96L34)
T4 construct: purchased Nanosyn (enzymatic panel); SGC in-house recombinant human kinases (DSF panel); Invitrogen (ALK1-6)
T4 sequence (Q96L34 1-752): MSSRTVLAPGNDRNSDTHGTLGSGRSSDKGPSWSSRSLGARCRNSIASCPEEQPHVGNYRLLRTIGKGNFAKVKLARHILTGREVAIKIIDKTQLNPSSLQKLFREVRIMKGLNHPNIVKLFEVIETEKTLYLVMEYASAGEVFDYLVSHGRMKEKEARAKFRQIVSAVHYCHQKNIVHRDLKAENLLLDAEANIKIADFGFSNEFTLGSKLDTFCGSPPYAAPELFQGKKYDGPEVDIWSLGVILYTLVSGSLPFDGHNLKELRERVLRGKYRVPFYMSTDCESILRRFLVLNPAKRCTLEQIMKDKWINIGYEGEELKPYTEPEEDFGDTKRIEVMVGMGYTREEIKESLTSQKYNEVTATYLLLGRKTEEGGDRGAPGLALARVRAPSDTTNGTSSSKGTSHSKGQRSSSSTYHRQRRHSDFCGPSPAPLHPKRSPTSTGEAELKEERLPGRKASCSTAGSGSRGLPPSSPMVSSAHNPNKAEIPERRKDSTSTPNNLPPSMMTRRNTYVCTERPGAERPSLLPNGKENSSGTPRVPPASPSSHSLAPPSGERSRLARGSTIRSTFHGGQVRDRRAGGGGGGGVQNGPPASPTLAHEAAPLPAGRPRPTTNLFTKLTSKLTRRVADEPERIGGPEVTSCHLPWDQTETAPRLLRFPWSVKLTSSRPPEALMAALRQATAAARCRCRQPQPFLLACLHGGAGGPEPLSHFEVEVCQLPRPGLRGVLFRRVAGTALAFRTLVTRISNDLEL
Method in brief: as §1

PDGFRα = biological target: T5, PDGFRα (Homo sapiens, UniProt P16234)
T5 construct: purchased Nanosyn (enzymatic panel); SGC in-house recombinant human kinases (DSF panel); Invitrogen (ALK1-6)
T5 sequence (P16234 24-1089): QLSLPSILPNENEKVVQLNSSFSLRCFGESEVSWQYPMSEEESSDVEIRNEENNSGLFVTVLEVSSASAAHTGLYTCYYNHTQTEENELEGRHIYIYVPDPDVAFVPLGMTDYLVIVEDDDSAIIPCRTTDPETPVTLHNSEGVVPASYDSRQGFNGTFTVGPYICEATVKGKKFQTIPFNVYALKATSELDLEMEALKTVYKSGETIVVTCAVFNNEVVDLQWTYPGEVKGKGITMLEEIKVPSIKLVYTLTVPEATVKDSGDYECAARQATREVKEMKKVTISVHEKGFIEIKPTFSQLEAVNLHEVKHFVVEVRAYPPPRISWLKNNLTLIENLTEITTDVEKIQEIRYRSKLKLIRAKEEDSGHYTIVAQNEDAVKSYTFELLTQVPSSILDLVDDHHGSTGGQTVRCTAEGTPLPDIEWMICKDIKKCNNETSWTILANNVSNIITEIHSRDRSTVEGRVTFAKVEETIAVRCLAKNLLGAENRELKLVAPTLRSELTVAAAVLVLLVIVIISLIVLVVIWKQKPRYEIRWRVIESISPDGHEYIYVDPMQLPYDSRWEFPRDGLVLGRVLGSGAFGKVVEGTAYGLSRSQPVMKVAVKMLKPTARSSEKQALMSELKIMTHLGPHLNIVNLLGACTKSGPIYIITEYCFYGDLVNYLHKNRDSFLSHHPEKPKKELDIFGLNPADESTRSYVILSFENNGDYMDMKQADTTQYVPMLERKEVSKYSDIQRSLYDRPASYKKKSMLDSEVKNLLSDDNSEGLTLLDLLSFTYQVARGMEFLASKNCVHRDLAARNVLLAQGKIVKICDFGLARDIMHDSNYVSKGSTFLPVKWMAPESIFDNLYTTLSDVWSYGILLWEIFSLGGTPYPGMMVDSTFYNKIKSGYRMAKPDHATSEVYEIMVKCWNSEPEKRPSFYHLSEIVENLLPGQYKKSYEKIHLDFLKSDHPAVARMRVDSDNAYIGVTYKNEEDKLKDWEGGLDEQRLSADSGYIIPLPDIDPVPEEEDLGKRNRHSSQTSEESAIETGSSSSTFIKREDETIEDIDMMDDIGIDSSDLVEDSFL
Method in brief: as §1

BRSK2 = biological target: T6, BRSK2 (Homo sapiens, UniProt Q8IWQ3)
T6 construct: purchased Nanosyn (enzymatic panel); SGC in-house recombinant human kinases (DSF panel); Invitrogen (ALK1-6)
T6 sequence (Q8IWQ3 1-736): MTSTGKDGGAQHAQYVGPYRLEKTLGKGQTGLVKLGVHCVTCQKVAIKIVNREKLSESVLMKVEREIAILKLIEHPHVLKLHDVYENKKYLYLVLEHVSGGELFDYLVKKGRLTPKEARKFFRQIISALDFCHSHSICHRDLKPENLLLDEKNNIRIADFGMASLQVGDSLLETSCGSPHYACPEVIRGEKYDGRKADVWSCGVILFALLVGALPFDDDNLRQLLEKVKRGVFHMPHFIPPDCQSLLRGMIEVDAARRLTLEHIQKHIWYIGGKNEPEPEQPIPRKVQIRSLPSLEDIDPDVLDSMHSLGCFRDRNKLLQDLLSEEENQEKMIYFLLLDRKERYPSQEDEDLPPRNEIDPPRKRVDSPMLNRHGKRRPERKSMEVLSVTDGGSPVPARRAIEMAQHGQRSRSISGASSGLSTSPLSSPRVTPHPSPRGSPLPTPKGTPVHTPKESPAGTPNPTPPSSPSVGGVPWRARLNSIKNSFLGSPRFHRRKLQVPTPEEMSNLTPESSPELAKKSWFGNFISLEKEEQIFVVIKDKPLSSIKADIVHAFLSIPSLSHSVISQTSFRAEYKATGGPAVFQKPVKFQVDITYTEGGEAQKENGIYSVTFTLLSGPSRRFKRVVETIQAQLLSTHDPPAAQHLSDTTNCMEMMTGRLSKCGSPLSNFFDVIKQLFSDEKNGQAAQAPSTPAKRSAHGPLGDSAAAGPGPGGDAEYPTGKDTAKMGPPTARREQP
Method in brief: as §1

PHKγ2 = biological target: T7, PHKγ2 (Homo sapiens, UniProt P15735)
T7 construct: purchased Nanosyn (enzymatic panel); SGC in-house recombinant human kinases (DSF panel); Invitrogen (ALK1-6)
T7 sequence (P15735 1-406): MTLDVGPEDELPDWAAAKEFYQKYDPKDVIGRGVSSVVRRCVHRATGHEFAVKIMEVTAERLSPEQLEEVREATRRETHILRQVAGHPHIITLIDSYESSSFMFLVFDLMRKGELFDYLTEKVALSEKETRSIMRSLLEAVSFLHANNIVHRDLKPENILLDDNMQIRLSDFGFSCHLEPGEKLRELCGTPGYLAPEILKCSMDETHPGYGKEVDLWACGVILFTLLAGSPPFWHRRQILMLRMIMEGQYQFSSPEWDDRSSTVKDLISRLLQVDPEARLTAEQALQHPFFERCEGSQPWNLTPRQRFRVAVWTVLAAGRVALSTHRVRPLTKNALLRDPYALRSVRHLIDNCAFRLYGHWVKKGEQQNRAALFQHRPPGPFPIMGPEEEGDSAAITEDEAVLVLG
Method in brief: as §1

FGFR2 = biological target: T8, FGFR2 (Homo sapiens, UniProt P21802)
T8 construct: purchased Nanosyn (enzymatic panel); SGC in-house recombinant human kinases (DSF panel); Invitrogen (ALK1-6)
T8 sequence (P21802 22-821): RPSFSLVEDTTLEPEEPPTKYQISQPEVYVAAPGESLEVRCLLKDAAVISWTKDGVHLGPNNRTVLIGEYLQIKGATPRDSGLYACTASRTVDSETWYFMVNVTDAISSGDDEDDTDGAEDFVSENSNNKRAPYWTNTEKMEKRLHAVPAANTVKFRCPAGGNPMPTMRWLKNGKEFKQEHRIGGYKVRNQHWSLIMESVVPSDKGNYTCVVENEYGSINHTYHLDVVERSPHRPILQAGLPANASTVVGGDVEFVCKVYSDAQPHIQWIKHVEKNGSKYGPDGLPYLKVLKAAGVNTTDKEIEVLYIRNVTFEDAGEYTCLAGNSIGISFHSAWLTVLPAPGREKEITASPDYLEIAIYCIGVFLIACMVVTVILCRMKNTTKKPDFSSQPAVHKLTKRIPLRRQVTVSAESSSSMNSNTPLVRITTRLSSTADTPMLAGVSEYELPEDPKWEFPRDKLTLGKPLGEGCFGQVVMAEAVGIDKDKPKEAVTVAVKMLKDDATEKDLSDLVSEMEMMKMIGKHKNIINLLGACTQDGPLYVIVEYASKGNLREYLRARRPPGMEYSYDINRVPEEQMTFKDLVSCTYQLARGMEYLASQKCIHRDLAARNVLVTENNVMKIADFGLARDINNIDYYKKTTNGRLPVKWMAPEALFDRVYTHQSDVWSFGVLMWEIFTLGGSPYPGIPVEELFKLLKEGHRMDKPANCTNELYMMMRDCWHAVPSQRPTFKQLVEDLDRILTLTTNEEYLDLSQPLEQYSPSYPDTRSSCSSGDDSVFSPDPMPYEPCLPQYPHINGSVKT
Method in brief: as §1

PIM3 = biological target: T9, PIM3 (Homo sapiens, UniProt Q86V86)
T9 construct: purchased Nanosyn (enzymatic panel); SGC in-house recombinant human kinases (DSF panel); Invitrogen (ALK1-6)
Method in brief: as §1

Row | SMILES | inhibition at 0.1 µM (YES) [%] | inhibition at 1 µM (YES) [%] | inhibition at 0.1 µM (PAK5) [%] | inhibition at 1 µM (PAK5) [%] | inhibition at 0.1 µM (FGFR3) [%] | inhibition at 1 µM (FGFR3) [%] | inhibition at 0.1 µM (MARK4) [%] | inhibition at 1 µM (MARK4) [%] | inhibition at 0.1 µM (PDGFRα) [%] | inhibition at 1 µM (PDGFRα) [%] | inhibition at 0.1 µM (BRSK2) [%] | inhibition at 1 µM (BRSK2) [%] | inhibition at 0.1 µM (PHKγ2) [%] | inhibition at 1 µM (PHKγ2) [%] | inhibition at 0.1 µM (FGFR2) [%] | inhibition at 1 µM (FGFR2) [%] | inhibition at 0.1 µM (PIM3) [%] | inhibition at 1 µM (PIM3) [%]
1 | COc1cc(-c2cc(-c3cccc(O)c3)cnc2N)cc(OC)c1OC [K02288, 3-[6-amino-5-(3,4,5-trimethoxy-phenyl)-pyridin-3-yl]-phenol] | 4.9 | 34 | -1 | -1 | -2 | 0.2 | 2.4 | 7.2 | 5.3 | 37 | 0.9 | 2.7 | -3 | -3 | 0.3 | 1.1 | 2.3 | 5.9
2 | c1ccc2c(-c3cnn4cc(-c5ccc(N6CCNCC6)cc5)cnc34)ccnc2c1 [LDN-193189] | 12 | 50 | 6.2 | 8.5 | 5 | 16 | 13 | 61 | 18 | 56 | 4.4 | 22 | 3.5 | 4.9 | 5 | 18 | 2 | -1
